Patent US10080366B2, “Agent for increasing sugar content in fruit” (RIKEN, priority 2012, dated 2018)

Legend:
[1] = test system: clusters of grape (variety: Crimson); assay: Estimated transpiration ratio of grape clusters (Example 9); type: in vivo; conditions: 10 g/L; 8 days after treatment
[2] = test system: harvested fruit of grape (variety: Barikan)
Method: The fruit of grape was maintained in an air-conditioned greenhouse (temperature: 25° C.), and measured for the mass over time. The sugar content of the fruit was measured before the application and 8 days after the application with a sugar content meter. Next, on the assumption that the change in the mass of the fruit was entirely due to the change in water content, calculated values of the amount of decrease in mass and the sugar content on the date (June 2) of the application were determined […] by using the following calculation formula. (Calculated as follows: the sugar content (%) calculated value))=the sugar content (%) before application×the mass (g) on the date of application/the mass (g) on the date of measurement))

[3] = 10 g/L, 25° C., mass 100 g on date of application

## O=C([O-])C(O)C(O)C(=O)[O-].[K+].[K+] (racemic) [DL-Potassium tartrate, reference compound]
[1]
  Estimated transpiration ratio (%) Average: 22%
  Estimated transpiration ratio (%) First: 22%

## CC(O)C(=O)[O-].[Na+] (racemic) [DL-Sodium lactate, reference compound]
[1]
  Estimated transpiration ratio (%) Average: 26%
  Estimated transpiration ratio (%) First: 26%
  Estimated transpiration ratio (%) Second: 25%

## N.N.O=C(O)O [Ammonium carbonate, reference compound]
[1]
  Estimated transpiration ratio (%) Average: 26%
  Estimated transpiration ratio (%) First: 25%
  Estimated transpiration ratio (%) Second: 28%

## N.N.O=S(=O)(O)O [Ammonium sulfate, reference compound]
[1]
  Estimated transpiration ratio (%) Average: 22%
  Estimated transpiration ratio (%) First: 21%
  Estimated transpiration ratio (%) Second: 23%

## [Ca+2].[Cl-].[Cl-] [Calcium chloride, reference compound]
[2]; 10 g/L, 25° C.
  Sugar content (%) 8 days later, actually measured value: 20.0%
[2]; [3]
  Mass (g) 6 days later (Jun. 8): 86.3 g
  Mass (g) 8 days later (Jun. 10): 81.9 g
[2]; 10 g/L, 8 days
  action to increase the sugar content in the fruit (comparison): almost the same as that of the untreated group
[2]; 10 g/L, calculated from decrease in mass
  Sugar content (%) 8 days later, calculated value: 20.8%
[2]; before application
  Sugar content (%) on date of application (Jun. 2): 17.0%

## O=P([O-])([O-])O.[K+].[K+] [Dipotassium hydrogen phosphate, dipotassium hydrogen phosphate]
[1]
  Estimated transpiration ratio (%) Average: 28%
  Estimated transpiration ratio (%) First: 28%

## O=P([O-])([O-])O.[Na+].[Na+] [Disodium hydrogen phosphate, disodium hydrogen phosphate]
[1]
  Estimated transpiration ratio (%) Average: 31%
  Estimated transpiration ratio (%) First: 35%
  Estimated transpiration ratio (%) Second: 28%

## O=C([O-])CCC(=O)[O-].[Na+].[Na+] [Disodium succinate]
[1]
  Estimated transpiration ratio (%) Average: 31%
  Estimated transpiration ratio (%) First: 31%

## O=C([O-])[O-].[Mg+2] [Magnesium carbonate, magnesium carbonate]
[1]
  Estimated transpiration ratio (%) Average: 32%
  Estimated transpiration ratio (%) First: 32%

## [Cl-].[Cl-].[Mg+2] [Magnesium chloride, reference compound]
[1]
  Estimated transpiration ratio (%) Average: 25%
  Estimated transpiration ratio (%) First: 25%
